Reference: US10106558B2, “Azolobenzazine compounds, compositions comprising these compounds and their use for controlling invertebrate pests” (BASF SE, priority 2015, dated 2018)

Key:
Assay type in all cases: in vivo
[1] = test system: yellow fever mosquito (Aedes aegypti); experiment: whole plant or invertebrate; details: 48 h, larval mortality visually assessed after 2 days, read-out: mortality in comparison with untreated controls
Procedure, shortened: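 Freshly hatched larvae (5-15 per well) held in 200 μl tap water; compounds formulated in 25% DMSO/water and 2.5 μl sprayed at several concentrations, two replicates. Plates kept 2 days at 28 °C, 80% RH, then larval mortality scored visually.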

[2] = test system: Diamond Back Moth (Plutella xylostella); experiment: Action on diamond back moth, dipped cabbage leaves; details: 3rd instar larvae, 72 hours after treatment, read-out: mortality in comparison with untreated controls
Procedure, shortened: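 Cabbage leaves dipped in compound in 1:1 water:acetone with 0.01% (vol/vol) surfactant, air-dried, placed on moist filter paper and infested with ten 3rd-instar larvae. Mortality scored 72 hours after treatment; feeding damage rated on a 0-100% scale.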

[3] = test system: vetch aphid (Megoura viciae); experiment: Action on vetch aphid, broad bean leaf disks in 24-well microtiter plates; details: foliar, 120 h, adult aphids on treated leaf disks, 5 days, read-out: mortality in comparison with untreated controls
Procedure: Example B7: Action on Vetch Aphid (Megoura viciae)
For evaluating control of vetch aphid (Megoura viciae) through contact or systemic means the test unit consisted of 24-well-microtiter plates containing broad bean leaf disks.
The compounds were formulated using a solution containing 75% v/v water and 25% v/v DMSO. Different concentrations of formulated compounds were sprayed onto the leaf disks at 2.5 μl, using a custom built micro atomizer, at two replications.
After application, the leaf disks were air-dried and 5-8 adult aphids placed on the leaf disks inside the microtiter plate wells. The aphids were then allowed to suck on the treated leaf disks and incubated at about 23±1° C. and about 50±5% relative humidity for 5 days. Aphid mortality and fecundity was then visually assessed.

[4] = test system: Orchid Thrips (Dichromothrips corbetti); experiment: Action on orchid thrips, floral-immersion technique; details: adult thrips, 72 hours after treatment, read-out: mortality in comparison with untreated controls
Procedure, shortened: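 Lab-colony adult thrips, about 20 per arena, were exposed to whole orchid flower petals dipped in compound diluted in 1:1 acetone:water with 0.01% v/v Kinetic HV and then dried. Arenas were held under continuous light at about 28 °C. Live thrips were counted after 3 days and percent mortality recorded at 72 h post-treatment.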

[5] = test system: boll weevil (Anthonomus grandis); experiment: Action on boll weevil, eggs on insect diet in 96-well microtiter plates; details: 120 h, 800 ppm, egg and larval mortality visually assessed after 5 days, read-out: mortality in comparison with untreated controls
Procedure, shortened: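 Diet in 96-well plates was infested with 5-10 A. grandis eggs and sprayed with compounds formulated in 75% water/25% DMSO, at several concentrations, in two replicates. Plates were held 5 days at about 25±1 °C and 75±5% RH. Egg and larval mortality was then scored visually.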

[6] = test system: Silverleaf Whitefly (Bemisia argentifolii) (Adults); experiment: Action on silverleaf whitefly adults, sprayed cotton plants; details: 72 h, 3 days after treatment, read-out: mortality in comparison with untreated controls
Procedure, shortened: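 Compounds diluted from cyclohexanone stocks into 50% acetone/water with 0.01% nonionic surfactant and electrostatically sprayed onto cotyledon-stage cotton. Dried plants were infested with 10–12 adults (3–5 days old), held ~25 °C, 20–40% RH for 3 days; mortality scored at day 3 vs untreated plants.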

[7] = test system: green peach aphid (Myzus persicae) (mixed life stages); experiment: Action on green peach aphid, liquid artificial diet under artificial membrane; details: 72 h, 800 ppm, adult aphids on treated aphid diet, 3 days, read-out: mortality in comparison with untreated controls
Text: Example B8: Action on Green Peach Aphid (Myzus persicae) (Mixed Life Stages)
For evaluating control of green peach aphid (Myzus persicae) through systemic means the test unit consisted of 96-well-microtiter plates containing liquid artificial diet under an artificial membrane.
The compounds were formulated using a solution containing 75% v/v water and 25% v/v DMSO. Different concentrations of formulated compounds were pipetted into the aphid diet, using a custom built pipetter, at two replications.
After application, 5-8 adult aphids were placed on the artificial membrane inside the microtiter plate wells. The aphids were then allowed to suck on the treated aphid diet and incubated at about 23±1° C. and about 50±5% relative humidity for 3 days. Aphid mortality and fecundity was then visually assessed.

Cc1ccc(C(C)C)c(N2C(=O)CS/C2=N\N=C\c2ccc3c(ccc4c3ncn4-c3ccc(OC(F)(F)F)cc3)n2)c1 [Compound C-6, (2Z)-3-(2-isopropyl-5-methyl-phenyl)-2-[(E)-[3-[4-(trifluoromethoxy)phenyl]imidazo[4,5-f]quinolin-7-yl]methylenehydrazono]thiazolidin-4-one]
≥ 75%: mortality at 800 ppm [1] | mortality at 500 ppm [2] | mortality at 800 ppm [3] | mortality at 500 ppm [4] | mortality at 800 ppm [5] | mortality at 500 ppm [6] | mortality at 800 ppm [7]
